In patent US11266662B2, “Ganaxolone for use in prophylaxis and treatment of postpartum depression” (Marinus Pharmaceuticals, Inc., priority 2018, dated 2022):
“Also recorded” adds a separate entry of the source.

Key:
[1] = tested on: mouse model of posttraumatic stress disorder (PTSD); conditions: Pinna and Rasmussen, 2014; cited from earlier work
female rats = test: Pulmonary safety pharmacology in female rats; type: in vivo, rat; conditions: doses up to 40 mg/kg
Protocol: (§1) Safety pharmacology studies were conducted with ganaxolone.

[2] = molecular target: human ether-a-go-go related gene (hERG) receptor (Homo sapiens, UniProt Q12809); test: hERG interaction (safety pharmacology); conditions: measured concentration of 70 nM (n=2)
human ether-a-go-go related gene (hERG) receptor, sequence (Q12809 whole entry): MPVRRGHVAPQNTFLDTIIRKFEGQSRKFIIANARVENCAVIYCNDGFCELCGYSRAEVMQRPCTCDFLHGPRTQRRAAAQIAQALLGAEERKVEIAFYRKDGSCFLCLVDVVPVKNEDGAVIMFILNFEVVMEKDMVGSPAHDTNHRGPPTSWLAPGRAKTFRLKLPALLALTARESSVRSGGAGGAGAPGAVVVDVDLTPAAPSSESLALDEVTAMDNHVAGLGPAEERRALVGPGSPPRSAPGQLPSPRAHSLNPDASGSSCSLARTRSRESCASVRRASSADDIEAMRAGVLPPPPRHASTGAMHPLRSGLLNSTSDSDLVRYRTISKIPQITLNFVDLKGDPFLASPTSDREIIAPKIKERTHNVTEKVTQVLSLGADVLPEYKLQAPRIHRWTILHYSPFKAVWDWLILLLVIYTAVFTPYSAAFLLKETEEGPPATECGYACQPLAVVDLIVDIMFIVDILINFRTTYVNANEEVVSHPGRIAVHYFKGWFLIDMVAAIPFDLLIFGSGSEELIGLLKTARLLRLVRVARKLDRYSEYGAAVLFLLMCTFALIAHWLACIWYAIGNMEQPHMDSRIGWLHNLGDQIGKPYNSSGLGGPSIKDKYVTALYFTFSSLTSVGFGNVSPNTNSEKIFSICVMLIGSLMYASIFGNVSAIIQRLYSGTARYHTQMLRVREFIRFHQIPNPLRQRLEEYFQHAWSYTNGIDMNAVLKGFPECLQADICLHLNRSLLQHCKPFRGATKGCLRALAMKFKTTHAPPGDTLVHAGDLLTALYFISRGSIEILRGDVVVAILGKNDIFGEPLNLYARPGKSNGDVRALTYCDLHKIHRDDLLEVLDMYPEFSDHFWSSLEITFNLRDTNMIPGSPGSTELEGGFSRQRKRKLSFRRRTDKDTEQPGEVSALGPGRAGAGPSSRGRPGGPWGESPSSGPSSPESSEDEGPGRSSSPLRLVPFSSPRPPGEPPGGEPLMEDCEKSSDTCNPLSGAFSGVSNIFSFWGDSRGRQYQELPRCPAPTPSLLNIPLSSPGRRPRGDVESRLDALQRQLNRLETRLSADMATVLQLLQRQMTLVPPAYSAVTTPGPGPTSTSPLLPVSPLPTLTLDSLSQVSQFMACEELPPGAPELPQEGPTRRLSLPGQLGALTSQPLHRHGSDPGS

subjects = test: All completed placebo-controlled clinical studies of ganaxolone: adverse events; type: in vivo, human
Protocol: As of Oct. 10, 2017, 1557 unique subjects have received ganaxolone ranging in duration from 1 day to more than 2 years using doses from 50 to 2000 mg/day in completed studies. Of these subjects, 1527 subjects received oral ganaxolone and 30 subjects received intravenous (IV ganaxolone).
In 20 completed Phase 1 studies, 319 healthy subjects received ganaxolone oral doses of 50 to 2,000 mg/day for periods of up to 2 weeks or IV bolus doses ranging from 10 to 30 mg over durations of 2 minutes to 1 hour or a bolus dose of 6 mg over 5 minutes followed with a continuous infusion of 20 mg per hour for 4 hours.
In the 20 completed Phase 2/3 clinical studies, 1238 unique subjects have received oral ganaxolone in studies of adult subjects with epilepsy, pediatric subjects with seizure disorders, pediatric subjects with FXS, adult subjects with PTSD, and adult subjects with migraine.

[3] = tested on: women with postpartum depression; test: Phase 2A study Cohort 6: efficacy (HAM-D17, CGI-I, EPDS, STAI6) versus placebo; type: in vivo, human; conditions: for Placebo-adjusted difference, HAM-D17 (LS Mean), early efficacy / Placebo-adjusted difference, HAM-D17 (LS Mean), late efficacy: Cohort 6: IV 20 mg/hr for 6 h then 900 mg orally for 28 days; for Placebo-adjusted difference, HAM-D17 (LS Mean), late efficacy: Day 29
Protocol: Approximately 10-30 subjects are randomized into each cohort.
The primary efficacy endpoint is HAM-D17 total score change from baseline to 60 hours post-infusion (on Day 3) for Cohorts 1-3 and to Day 29 for Cohort 6. The primary analysis in each cohort is done using the mITT set. Although the trial is not powered for inferential analysis and there is no consideration for control of type 1 error across multiple cohorts, a clinically meaningful numeric difference in means of 3-4 points, based on mITT analysis, between ganaxalone and placebo treatment groups is considered an indication of acceptable efficacy and is be the most influential outcome in the overall assessment of the efficacy of ganaxolone in treating PPD.
The trial also evaluates the following secondary endpoints at each post-baseline data collection time point to provide additional evidence of the efficacy of ganaxolone in treating PPD: • Change from baseline in HAM-D17 total score other than at 60 hours post-infusion (on Day 3) for Cohorts 1-3 and to Day 29 for Cohort 6 • Change from baseline in EPDS total score • Change from baseline in STAI6 • CGI-I. Exploratory Endpoints

rabbits = test: Local tolerance study in rabbits; conditions: rabbit, in vivo
[4] = Cardiovascular safety pharmacology in dogs, single dose; type: in vivo, dog; conditions: dog, in vivo, single dose of up to 15 mg/kg
Protocol: as §1

dogs [5] = test: as above; type: in vivo, dog; conditions: single dose of up to 15 mg/kg
Protocol: as §1

[6] = tested on: cytochrome P450 (CYP) isoenzymes 1A1/2 and 2B1/2; test: Induction of cytochrome P450 isoenzymes in rats; conditions: female rats but not males
[7] = Tissue distribution of [14C]-ganaxolone; conditions: mouse, rat, brain
[8] = IV bolus plus continuous IV infusion toxicity in dog, 28 days; conditions: in vivo
rats = test: IV toxicity in rats, 14 days; conditions: continuous IV dosing for 14 days
[9] = IV toxicity in rats, 14 days; conditions: rat, in vivo, iv
[10] = In vitro haemolysis / human plasma compatibility
[11] = 1-year (chronic oral) dog toxicity study; conditions: dog, in vivo, oral, 15 mg/kg/day
dogs [12] = test: 1-year (chronic oral) dog toxicity study

In the case of `CC(=O)[C@H]1CC[C@H]2[C@@H]3CC[C@H]4C[C@](C)(O)CC[C@]4(C)[C@H]3CC[C@]12C` [ganaxolone, 3α-hydroxy-3β-methyl-5α-pregnan-20-one], the “Aggression and social isolation-induced anxiety-like behaviour” value [1] is given as “decreased aggression and social isolation-induced anxiety-like behaviour”, the Pulmonary effects (female rats) is given as “No pulmonary effects were observed” and the “Interaction with hERG receptor” value [2] is given as “did not interact”. The Incidence of syncope (subjects; 2/993 subjects) was 0.2%, the “Discontinuations due to rash” value (subjects; 6/993) was 0.6% and the “Subjects with at least 1 treatment emergent adverse event (TEAE)” value (subjects; 613/993 subjects) was 61.7%. The “Subjects with elevated LFTs (>3×ULN AST and/or ALT)” value (subjects; Phase 1, 2, and 3 placebo-controlled studies) was 0.32%, the “Events of loss of consciousness” value (subjects; all placebo-controlled studies) was “no events of loss of consciousness related to ganaxolone” and the TEAE dizziness (subjects; human, in vivo) was 13.0%. For the same compound, the TEAE fatigue (subjects; human, in vivo) was 9.7%, the TEAE headache (subjects; human, in vivo) was 5.5% and the TEAE somnolence (subjects; human, in vivo) was 22.0%. For the same compound, the “EPDS and STAI6 versus placebo” value ([3]; Cohort 6) was “numeric advantage at all timepoints till Day 29”, the “Placebo-adjusted difference, HAM-D17 (LS Mean), early efficacy” value ([3]; PP, 6 hours) was −3.4 and the “Placebo-adjusted difference, HAM-D17 (LS Mean), early efficacy” value ([3]; PP, Day 2) was −2.7. For the same compound, the “Placebo-adjusted difference, HAM-D17 (LS Mean), late efficacy” value ([3]; PP) was −2.6, the “Placebo-adjusted difference, HAM-D17 (LS Mean), early efficacy” value ([3]; mITT, 6 hours) was −2.8 and the “Placebo-adjusted difference, HAM-D17 (LS Mean), early efficacy” value ([3]; mITT, Day 2) was −2.6. The “Placebo-adjusted difference, HAM-D17 (LS Mean), late efficacy” value ([3]; mITT) was “+1”, the “HAMD17 change from baseline, PP analysis and sensitivity by site analyses” value ([3]; Cohort 6, after Day 2) was “favors GNX” and the “HAMD17 decrease versus placebo” value ([3]; Cohort 6, at 6 hours and on Day2, both mITT, PP) was “favor ganaxolone”. The “CGI-I decrease versus placebo” value ([3]; Cohort 6, both mITT, PP, early timepoint) was “favors GNX”, the “HAMD17 mITT analysis at late and intermediate timepoints during oral treatment” value ([3]; Cohort 6, mITT) was “not different from placebo” and the CGI-I versus placebo ([3]; Cohort 6, mITT and PP, Day 2, Day 8, Day 15, Day 29 (p<0.05)) was “favors GNX at all timepoints”. The Local tolerance (rabbits) was “no findings”, the AUC(0-t) ([4]; read-out: AUC(0-24)) was 10000 ng·h/mL and the Cmax ([4]; read-out: Maximum concentration [Cmax]) was 1000 ng/mL. The “Effect on cardiovascular parameters” value (dogs [5]) was “no effect on cardiovascular parameters”, the “Induction of CYP isoenzymes 1A1/2 and 2B1/2” value [6] was “induces” and the Kp [7] was roughly 5. For the same compound, the NOAEL at 28 days [8] was 7.2 mg/kg/day, the Mutagenicity (Mutagenicity) was “No potential for mutagenicity was detected” and the “Clinical pathology parameters or histopathology” value (rats) was “no ganaxolone-related changes”. For the same compound, the NOAEL at 14 days ([9]; female) was 30 mg/kg/day, the NOAEL at 14 days ([9]; male) was 42 mg/kg/day and the Haemolysis [10] was “did not cause haemolysis; also recorded: did not cause hemolysis”. The Cmax [11] was greater than 1500 ng/mL, the “Findings associated with mean Cmax greater than 1500 ng/mL” value (dogs [12]; 10 and 15 mg/kg/day) was “increased weight and total plasma cholesterol levels” and the “ECG / heart rate finding” value (dogs [12]; after 3 months of dosing, in 4 animals (>190 bpm)) was “transient sinus tachycardia”.
